The record followed here is BindingDB's records for doi:10.1016/j.bmcl.2005.10.026 (Pfizer, 2005).

Some results are limits rather than exact numbers.

Experiment [1] is described as follows: Inhibition of PDE4D.
Experiment [2] in a line: Inhibition of Eotaxin mediated by human eosinophil chemotaxis.
Experiment [3] is described as follows: Inhibition of PAF mediated human eosinophil chemotaxis.
Experiment [4] is described as follows: Inhibition of C5a mediated human eosinophil chemotaxis.

With `C[C@@H](NC(=O)c1cccnc1Oc1ccc(F)cc1)c1cccs1` [(R)-2-(4-fluorophenoxy)-N-(1-(thiophen-2-yl)ethyl)nicotinamide], the IC50 in experiment [1] was under 1 nM; in experiment [2], 3 nM; in experiment [3], 1 nM; in experiment [4] it was 1 nM.
